The values below come from patent publication US9527807B2, “Sulfonamide derivative and use thereof” (Takeda Pharmaceutical Company Limited, priority 2011, dated 2016).

Structures can show the parent of a compound that is named as a salt.

The first assay concerns methamphetamine (MAP)-induced hyperlocomotion. The assay can be described thus: methamphetamine (MAP)-induced hyperlocomotion. The note with it: FIG. 1. Type of assay: in vivo.
For `CS(=O)(=O)N[C@H]1CCOC[C@@H]1COc1ccc(-n2cc(Cl)cn2)cc1` [compound A, N-[(3R,4S)-3-{[4-(4-chloro-1H-pyrazol-1-yl)phenoxy]methyl}tetrahydro-2H-pyran-4-yl]methanesulfonamide], the “inhibition of methamphetamine (MAP)-induced hyperlocomotion” value is on record as “inhibition”. With `CCS(=O)(=O)N[C@H]1CCOC[C@@H]1COc1ccc(-n2cc(Cl)cn2)cc1F` [compound B, N-[(3R,4S)-3-{[4-(4-chloro-1H-pyrazol-1-yl)-2-fluorophenoxy]methyl}tetrahydro-2H-pyran-4-yl]ethanesulfonamide], the “inhibition of methamphetamine (MAP)-induced hyperlocomotion” value is given as “inhibition”.

For another assay, the system named is MAP-induced hyperlocomotion in mice. In words: Inhibition of methamphetamine (MAP)-induced hyperlocomotion. The class given is in vivo. As to conditions: male ICR mice; compound 10 mg/kg p.o. 60 min before MAP 2 mg/kg s.c.; counts 0-120 min after MAP; Welch's t-test; FIG. 1. The protocol:
Male ICR mice were supplied by CLEA Japan, Inc (Japan). After arrival to the vivarium, animals were allowed a minimum of 1 week for acclimation. They were housed under a 12:12-h light/dark cycle in a temperature- and humidity-controlled laboratory and allowed food and water ad libitum.
A test compound was suspended in 0.5% methylcellulose in distilled water and orally administered (p.o.). Methamphetamine (Dainippon Sumitomo Pharma Co., Ltd.) was dissolved in saline and subcutaneously administered (s.c.). All drugs were dosed in a volume of 10 mL/kg body weight for mice.
The widely used animal models of psychosis have been the measurement of the extent of hyperlocomotion induced by psychostimulants (e.g., amphetamine, cocaine, methamphetamine, MK-801 and phencyclidine) in rodents (Psychopharmacology 1999, vol. 145: 237-250). 2 compounds (A and B) were tested for its ability to antagonize MAP-induced hyperlocomotion in mice. Male ICR mice were habituated in the locomotor chambers with infrared sensors (BrainScienceIdea Co., Ltd. Japan) to the experiment. […] Locomotion activities were measured, and accumulated counts (120 min after administration of MAP) were calculated in each treatment group. All data were represented as means plus the standard errors of the means (n=3-8) and analyzed using Welch's t-test with significance set at ^$P<0.05, ^$$P<0.01 and ^$$$P<0.001. […]
For `CS(=O)(=O)N[C@H]1CCOC[C@@H]1COc1ccc(-n2cc(Cl)cn2)cc1` [compound A, N-[(3R,4S)-3-{[4-(4-chloro-1H-pyrazol-1-yl)phenoxy]methyl}tetrahydro-2H-pyran-4-yl]methanesulfonamide], the “inhibition of MAP-induced hyperlocomotion (accumulated locomotion counts)” value is reported as “significant inhibition”.

Turning to `CCS(=O)(=O)N[C@H]1CCOC[C@@H]1COc1ccc(-n2cc(Cl)cn2)cc1F` [compound B, N-[(3R,4S)-3-{[4-(4-chloro-1H-pyrazol-1-yl)-2-fluorophenoxy]methyl}tetrahydro-2H-pyran-4-yl]ethanesulfonamide], the “inhibition of MAP-induced hyperlocomotion (accumulated locomotion counts)” value is “significant inhibition”.

The target in another assay is T1, AMPA receptor (human GluR1 flip/stargazin expressed in CHO-K1 cells) (Homo sapiens, UniProt P42261).
T1 construct: expressed in transfected cells; host or cells: CHO-K1
T1 sequence (P42261 19-906 isoform P42261-2 limits assumed): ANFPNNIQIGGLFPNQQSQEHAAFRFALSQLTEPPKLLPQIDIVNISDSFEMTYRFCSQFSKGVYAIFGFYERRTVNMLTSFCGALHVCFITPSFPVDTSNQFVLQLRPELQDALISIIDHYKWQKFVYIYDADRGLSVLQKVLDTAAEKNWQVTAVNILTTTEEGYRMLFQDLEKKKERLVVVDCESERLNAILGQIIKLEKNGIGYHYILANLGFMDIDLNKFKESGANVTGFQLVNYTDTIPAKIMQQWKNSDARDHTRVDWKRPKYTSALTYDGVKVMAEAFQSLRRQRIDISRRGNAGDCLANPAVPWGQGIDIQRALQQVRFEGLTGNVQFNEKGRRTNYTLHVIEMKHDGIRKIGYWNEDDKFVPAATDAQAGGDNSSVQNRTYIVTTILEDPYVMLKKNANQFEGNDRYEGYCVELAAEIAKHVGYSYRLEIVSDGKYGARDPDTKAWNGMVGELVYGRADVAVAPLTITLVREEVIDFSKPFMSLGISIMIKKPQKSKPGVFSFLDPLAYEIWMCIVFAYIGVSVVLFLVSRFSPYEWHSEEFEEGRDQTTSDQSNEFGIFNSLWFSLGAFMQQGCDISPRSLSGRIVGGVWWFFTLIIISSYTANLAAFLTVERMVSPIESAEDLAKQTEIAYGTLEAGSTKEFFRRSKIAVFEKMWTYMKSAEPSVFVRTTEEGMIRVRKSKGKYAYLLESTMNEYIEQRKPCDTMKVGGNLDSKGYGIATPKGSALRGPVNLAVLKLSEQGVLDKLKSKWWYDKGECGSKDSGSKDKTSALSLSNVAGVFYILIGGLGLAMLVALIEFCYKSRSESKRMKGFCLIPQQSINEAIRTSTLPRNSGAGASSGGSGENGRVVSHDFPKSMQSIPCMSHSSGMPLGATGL
T1 sequence (Q9Y698 whole entry partner): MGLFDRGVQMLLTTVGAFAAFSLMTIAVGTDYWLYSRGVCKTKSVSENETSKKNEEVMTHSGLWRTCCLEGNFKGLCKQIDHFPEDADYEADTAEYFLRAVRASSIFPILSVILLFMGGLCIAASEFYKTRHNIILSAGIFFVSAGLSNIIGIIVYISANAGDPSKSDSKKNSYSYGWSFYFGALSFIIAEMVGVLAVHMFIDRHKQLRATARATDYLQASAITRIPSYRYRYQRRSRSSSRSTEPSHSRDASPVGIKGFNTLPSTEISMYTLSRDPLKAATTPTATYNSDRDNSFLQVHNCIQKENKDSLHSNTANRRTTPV
In words: AMPA receptor function enhancing activity using calcium influx as index. Type of assay: cell-based. The note with it: change in fluorescence level in 3 min, 100% = 3 mM glutamic acid + 300 μM cyclothiazide, 0% = 3 mM glutamic acid only. Put shortly: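 CHO-K1 cells co-expressing human GluR1 flip and stargazin, Calcium 4 dye with 1.25 mM probenecid; compound added with glutamate (3 mM final), fluorescence change over 3 min. Activity (%) scaled between 3 mM glutamate alone (0%) and glutamate plus 300 μM cyclothiazide (100%).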
Take `CCS(=O)(=O)N[C@H]1CCC(F)(F)C[C@@H]1COc1ccc(-c2cccn(C)c2=O)cc1` [Example 267, N-[(1S,2S)-4,4-difluoro-2-{[4-(1-methyl-2-oxo-1,2-dihydropyridin-3-yl)phenoxy]methyl}cyclohexyl]ethanesulfonamide]: the “activity (%)” value was 93%.

On to `CS(=O)(=O)N[C@H]1CCC(F)(F)C[C@@H]1COc1ccc(-c2ccc(C#N)cn2)cc1` [Example 268, N-[(1S,2S)-2-{[4-(5-cyanopyridin-2-yl)phenoxy]methyl}-4,4-difluorocyclohexyl]methanesulfonamide], for which the “activity (%)” value is on record as 101%. As for `CS(=O)(=O)N[C@H]1CCOC[C@@H]1COc1ccc(-n2cc(Cl)cn2)cc1` [Example 269, N-[(3R,4S)-3-{[4-(4-chloro-1H-pyrazol-1-yl)phenoxy]methyl}tetrahydro-2H-pyran-4-yl]methanesulfonamide], the “activity (%)” value is 93%.

Consider `O=S(=O)(N[C@H]1CCOC[C@@H]1COc1ccc(-n2cc(Cl)cn2)cc1)C1CC1` [Example 277, N-[(3R,4S)-3-{[4-(4-chloro-1H-pyrazol-1-yl)phenoxy]methyl}tetrahydro-2H-pyran-4-yl]cyclopropanesulfonamide], for which the “activity (%)” value is on record as 90%. Take `O=S(=O)(N[C@H]1CCCO[C@@H]1COc1ccc(-c2ccc(F)cn2)cc1)C1CC1` [Example 282, 1,5-anhydro-4-[(cyclopropylsulfonyl)amino]-2,3,4-trideoxy-6-β-[4-(5-fluoropyridin-2-yl)phenyl]-D-erythro-hexitol]: the “activity (%)” value stood at 96%.

For `CS(=O)(=O)N[C@H]1COCC[C@@H]1COc1ccc(-c2ncc(F)cn2)cc1` [Example 283, N-[(3R,4S)-4-{[4-(5-fluoropyrimidin-2-yl)phenoxy]methyl}tetrahydro-2H-pyran-3-yl]methanesulfonamide], the “activity (%)” value was found to be 98%.

On to `CS(=O)(=O)N[C@H]1COCC[C@@H]1COc1ccc(-c2ncc(Cl)cn2)cc1` [Example 284, N-[(3R,4S)-4-{[4-(5-chloropyrimidin-2-yl)phenoxy]methyl}tetrahydro-2H-pyran-3-yl]methanesulfonamide], for which the “activity (%)” value worked out at 92%. Regarding `CCS(=O)(=O)N[C@H]1CCOC[C@@H]1COc1ccc(-c2ccc(C#N)cn2)cc1` [Example 297, N-[(3R,4S)-3-{[4-(5-cyanopyridin-2-yl)phenoxy]methyl}tetrahydro-2H-pyran-4-yl]ethanesulfonamide], the “activity (%)” value came to 95%.

Consider `O=S(=O)(N[C@H]1CCOC[C@@H]1COc1ccc(-c2ncc(Cl)s2)cc1)C1CC1` [Example 312, N-[(3R,4S)-3-{[4-(5-chloro-1,3-thiazol-2-yl)phenoxy]methyl}tetrahydro-2H-pyran-4-yl]cyclopropanesulfonamide], for which the “activity (%)” value was 91%.

Regarding `O=S(=O)(N[C@H]1COCC[C@@H]1COc1ccc(-c2ncc(Cl)cc2F)cc1)C1CC1` [Example 383, N-[(3R,4S)-4-{[4-(5-chloro-3-fluoropyridin-2-yl)phenoxy]methyl}tetrahydro-2H-pyran-3-yl]cyclopropanesulfonamide], the “activity (%)” value came to 60%. Take `CCS(=O)(=O)N[C@H]1CCCO[C@@H]1COc1ccc(-c2ncc(F)cn2)cc1` [Example 399, 1,5-anhydro-2,3,4-trideoxy-4-[(ethylsulfonyl)amino]-6-O-[4-(5-fluoropyrimidin-2-yl)phenyl]-D-erythro-hexitol]: the “activity (%)” value is recorded as 94%. Same read-out and setting: the result for `CS(=O)(=O)N[C@H]1CCOC[C@@H]1COc1ccc(-n2cccn2)c(F)c1F` [Example 425, N-[(3R,4S)-3-{[2,3-difluoro-4-(1H-pyrazol-1-yl)phenoxy]methyl}tetrahydro-2H-pyran-4-yl]methanesulfonamide hydrochloride] reads 96%; that for `CCS(=O)(=O)N[C@H]1CCOC[C@@H]1COc1ccc(-n2cc(Cl)cn2)cc1F` [Example 454, N-[(3R,4S)-3-{[4-(4-chloro-1H-pyrazol-1-yl)-2-fluorophenoxy]methyl}tetrahydro-2H-pyran-4-yl]ethanesulfonamide], 89%. The same measure, in the same setting: the result for `CCS(=O)(=O)N[C@H]1CCC(F)(F)C[C@@H]1COc1ccc(N2CCCC2=O)cc1` [Example 482, N-[(1S,2S)-4,4-difluoro-2-{[4-(2-oxopyrrolidin-1-yl)phenoxy]methyl}cyclohexyl] ethanesulfonamide] reads 99%; that for `Cn1cccc(-c2ccc(OC[C@H]3CSCC[C@@H]3NS(C)(=O)=O)cc2)c1=O` [Example 518, N-((3S,4S)-3-((4-(1-methyl-2-oxo-1,2-dihydropyridin-3-yl)phenoxy)methyl)tetrahydro-2H-thiopyran-4-yl)methanesulfonamide], 95%. The same measure, in the same setting: the result for `CS(=O)(=O)N[C@H]1CCSC[C@@H]1COc1ccc(C2CCOCC2)cc1` [Example 519, N-((3S,4S)-3-((4-(tetrahydro-2H-pyran-4-yl)phenoxy)methyl)tetrahydro-2H-thiopyran-4-yl)methanesulfonamide] reads 88%; that for `CCS(=O)(=O)N[C@H]1CCSC[C@@H]1COc1ccc(-n2cc(C#N)cn2)cc1` [Example 522, N-((3S,4S)-3-((4-(4-cyano-1H-pyrazol-1-yl)phenoxy)methyl)tetrahydro-2H-thiopyran-4-yl)ethanesulfonamide], 95%. `CCS(=O)(=O)N[C@H]1CCSC[C@@H]1COc1ccc(C2CCOCC2)cc1` [Example 529, N-((3S,4S)-3-((4-(tetrahydro-2H-pyran-4-yl)phenoxy)methyl)tetrahydro-2H-thiopyran-4-yl)ethanesulfonamide]: the “activity (%)” value is 89%.
